The test system of assay [1] is cotton aphid (Aphis gossypii). Nature of the assay: Test Example 1: foliar spray on cucumber seedlings infested with cotton aphid, controlling value. The following applies: 120 h, spray 10 mL/seedling on cucumber, 5 days after spraying, 25° C. Format: in vivo. An excerpt: Controlling value (%)={1−(Cb×Tai)/(Cai×Tb)}×100 wherein the symbols in the formula represent the following meanings. Cb: Number of the test insects in untreated group; Cai: Number of the surviving insects at the time of the investigation in untreated group; Tb: Number of the test insects in treated group; Tai: Number of the surviving insects at the time of the investigation in treated group; Here the “untreated group” represents a group where a similar treatment procedure to that of the treated group except not using each test compound is done.

Assay [2] deals with housefly (Musca domestica). Nature of the assay: whole plant or invertebrate. It counts as in vivo. As to conditions: 24 h, read-out: mortality of insects. Here is the method: A bottom of a plastic cup having a diameter of 5.5 cm is lined with the same size of a filter paper, and each of the diluted solutions (0.7 mL) is added dropwise on the filter paper, and sucrose (30 mg) is homogeneously placed into the plastic cup as a bait.

This passage reports pest or weed control and mortality results from patent publication US10273210B2, “Pyridine compound” (Sumitomo Chemical Company, Limited, priority 2015, dated 2019).

Bounds are passed on as bounds.

Broadly, the pest or weed control is how far the test organism was held down. On to `CCS(=O)(=O)c1cc(NC(=O)C2CC2)ccc1-c1ccc(OCC(F)(F)C(F)(F)F)cn1` [Present compound 63], for which, in assay [1], the pest or weed control at 500 ppm was at least 90%.
In assay [1], `CCS(=O)(=O)c1cc(-c2ccccn2)ccc1-c1ccc(OCC(F)(F)C(F)(F)F)cn1` [Present compound 68] displayed a pest or weed control at 200 ppm of at least 90% and a pest or weed control at 500 ppm of at least 90%.
Regarding `CCS(=O)(=O)c1cc(N)ccc1-c1ccc(OCC(F)(F)C(F)(F)F)cn1` [Present compound 53], in assay [1], the pest or weed control at 500 ppm is at least 90%.
For the compound `CCS(=O)(=O)c1cc(C(=O)O)ccc1-c1ccc(OCC(F)(F)C(F)(F)F)cn1` [Present compound 61], in assay [1], the pest or weed control at 200 ppm was at least 90% and the pest or weed control at 500 ppm was at least 90%.
The term mortality denotes the share of the test organisms that died. For the compound `CCS(=O)(=O)c1cc(-n2cncn2)ccc1-c1ccc(OCC(F)(F)C(F)(F)F)cn1` [Present compound 67], in assay [1], the pest or weed control at 200 ppm is at least 90% and the pest or weed control at 500 ppm was at least 90%. For the same compound, the mortality at 500 ppm in assay [2] is at least 100%.
In assay [1], `CCS(=O)(=O)c1cc(C#N)ccc1-c1ccc(OCC(F)(F)C(F)(F)F)cn1` [Present compound 60] had a pest or weed control at 200 ppm of at least 90% and a pest or weed control at 500 ppm of at least 90%.
In assay [1], `CCSc1cc(C#N)ccc1-c1ccc(OCC(F)(F)C(F)(F)F)cn1` [Present compound 59] came in with a pest or weed control at 200 ppm of at least 90% and a pest or weed control at 500 ppm of at least 90%.
Consider `CCS(=O)(=O)c1ccc(N)cc1-c1ccc(OCC(F)(F)C(F)(F)F)cn1` [Present compound 62], for which, in assay [1], the pest or weed control at 200 ppm is at least 90% and the pest or weed control at 500 ppm was at least 90%.
